Measurements reported in patent US12240870B2, “Sequencing method for CAR T cell therapy” (Purdue Research Foundation, priority 2018, dated 2025).

Experiment: EC17 dose finding and CRS assessment in tumor-free mice
Format: in vivo, NSG mice
Source text: Panel A: Schematic diagram to show dose scheduling of CAR-T cells (˜10 million “clinical facsimile”) plus EC17 dosed 3 different ways in NSG mice without or with pre-established MDA-MB-231 xenografts. Tumor-free mice received EC17 SIW 500 nmol/kg (2 doses on days 2 and 10). Tumor-bearing mice received EC17 as follows: EC17 SIW 500 nmol/kg (5 doses on days 2, 10, 17, 24, and 31), EC17 M/Th/M_Escalation-1 (repeats of 5/50/500 nmol/kg on Monday/Thursday/Monday followed by 1-week break, i,e. on days 2, 6, 10, 17, 20, 24, and 31), or EC17 M/Th/M_Escalation-2 (repeats of 5/100/1000 nmol/kg on Monday/Thursday/Monday followed by 1-week break, i.e. days 2, 6, 10, 17, 20, 24, and 31). Panel B: Systemic levels of human IFNγ on a log 2 scale detected in mouse plasma on days 11 and 12 after CAR-T cell injection in tumor-bearing versus tumor-free mice (i.e., ˜20 and 42 hours after the previous EC17 dose in all treated cohorts). Panel C: Circulating CAR-T cells in mouse blood identified as human CD3ε+ EGFRt+ events by flow cytometry and enumerated per 100 μL of whole blood. Panel D: Measurements of change in body weight and tumor volume in tumor-bearing mice that received CAR-T cells only or CAR-T cells plus EC17 dosed 3 different ways (dashed lines indicated each EC17 dose). n=5 mice per group. All data represent mean±s.e.m. * p<0.05 by one-way ANOVA test. […]

Nc1nc2ncc(CNc3ccc(C(=O)N[C@@H](CCC(=O)NCCNC(=S)Nc4ccc(-c5c6ccc(=O)cc-6oc6cc(O)ccc56)c(C(=O)O)c4)C(=O)O)cc3)nc2c(=O)[nH]1 [EC17, FA-(γ)-ethylenediamine-FITC]
body weight loss (tumor-free mice, two weekly doses of EC17 at 500 nmol/kg): no CRS symptoms (grade 0 out of a 0-5 scale) or body weight loss was observed
human IFNγ in mouse plasma (tumor-free, CAR-T cells plus EC17, days 11 and 12): low levels of IFNγ were detected
